In one data set the test system is Sugarbeet. The data set is described as follows: Post-emergence test, greenhouse. The class given is in vivo. The conditions noted are these: 250 g ai/ha, after three weeks. The method, then: (§1) Post-Emergence Test [table] To produce a suitable preparation of active compound, 1 part by weight of active compound is mixed with the stated amount of solvent, the stated amount of emulsifier is added and the concentrate is diluted with water to the desired concentration. Test plants of a height of 5-15 cm are sprayed with the preparation of active compound such that the particular amounts of active compound desired are applied per unit area. The concentration of the spray liquor is chosen such that the particular amounts of active compound desired are applied in 1000 l of water/ha. After three weeks, the degree of damage to the plants is rated in % damage in comparison to the development of the untreated control. The figures denote: [table]

For the next data set, the system named is Lolium. Nature of the data set: Post-emergence test, greenhouse. The note with it: after three weeks. It is filed as in vivo. How it is done:
as §1

The subject of a further data set is Oilseed rape. The data set is described as follows: Post-emergence test, greenhouse. The class given is in vivo. The note with it: 125 g ai/ha, after three weeks. How it is done: as §1
Another data set relates to Abutilon. Nature of the data set: Post-emergence test, greenhouse. The class given is in vivo. The conditions noted are these: 250 g ai/ha, after three weeks. The method, then:
as §1

A further data set has as its system Viola. The data set is described as follows: Post-emergence test, greenhouse. The class given is in vivo. The conditions noted are these: 125 g ai/ha, after three weeks. How it is done: as §1
A further data set has as its system Avena fatua. Nature of the data set: Post-emergence test, greenhouse. It is filed as in vivo. The conditions noted are these: after three weeks. The method, then:
as §1

A further data set deals with Bromus. Nature of the data set: Post-emergence test, greenhouse. It is filed as in vivo. The note with it: after three weeks. How it is done:
as §1

Another data set has as its system Setaria. The data set is described as follows: Post-emergence test, greenhouse. The class given is in vivo. The conditions noted are these: after three weeks. How it is done:
as §1

The next data set has as its system Alopecurus. The data set is described as follows: Post-emergence test, greenhouse. The class given is in vivo. The note with it: after three weeks. How it is done: as §1
Data set [1] concerns cotton aphid (Aphis gossypii). Nature of the data set: Aphis gossypii test (cotton leaves dipped). The note with it: 500 ppm active compound. The class given is in vivo. How it is done: (§2) Aphis gossypii Test [table] To produce a suitable preparation of active compound, 1 part by weight of active compound is mixed with the stated amounts of solvent and emulsifier, and the concentrate is diluted with emulsifier-containing water to the desired concentration. Cotton leaves (Gossypium hirsutum) which are heavily infested by the cotton aphid (Aphis gossypii) are treated by being dipped into the preparation of active compound of the desired concentration. After the desired period of time, the kill in % is determined. 100% means that all aphids have been killed; 0% means that none of the aphids have been killed.

Data set [2] relates to peach aphid (Myzus persicae). The data set is described as follows: Myzus test (cabbage leaves dipped). The class given is in vivo. The note with it: 500 ppm active compound. The method, then: as §2, with “Myzus” for “Aphis gossypii”, “Cabbage” for “Cotton”, “(Brassica oleracea)” for “(Gossypium hirsutum)”, “peach” for “cotton”, “(Myzus persicae)” for “(Aphis gossypii)”
For data set [3], the system named is greenhouse red spider mite (Tetranychus urticae). Nature of the data set: Tetranychus test (OP-resistant/dip treatment). The class given is in vivo. The conditions noted are these: 100 ppm active compound, OP-resistant, dip treatment. How it is done: Tetranychus Test (OP-Resistant/Dip Treatment)
To produce a suitable preparation of active compound, 1 part by weight of active compound is mixed with the stated amounts of solvent and emulsifier, and the concentrate is diluted with emulsifier-containing water to the desired concentration.
Bean plants (Phaseolus vulgaris) which are heavily infested by all stages of the greenhouse red spider mite (Tetranychus urticae) are treated by being dipped into a preparation of active compound of the desired concentration.
After the desired period of time, the effect in % is determined. 100% means that all spider mites have been killed; 0% means that none of the spider mites have been killed.

Data set [4] deals with larvae of the mustard beetle (Phaedon cochleariae). Nature of the data set: Phaedon larvae test. It is filed as in vivo. The conditions noted are these: 500 ppm active compound. The method, then:
(§3) Phaedon larvae Test [table] To produce a suitable preparation of active compound, 1 part by weight of active compound is mixed with the stated amounts of solvent and emulsifier, and the concentrate is diluted with emulsifier-containing water to the desired concentration. Cabbage leaves (Brassica oleracea) are treated by being dipped into the preparation of active compound of the desired concentration and are populated with larvae of the mustard beetle (Phaedon cochleariae) while the leaves are still moist. After the desired period of time, the kill in % is determined. 100% means that all beetle larvae have been killed; 0% means that none of the beetle larvae have been killed.

Data set [5] relates to caterpillars of the armyworm (Spodoptera frugiperda). Nature of the data set: Spodoptera frugiperda test. The class given is in vivo. The conditions noted are these: 500 ppm active compound. The method, then: as §3, with “Spodoptera frugiperda” for “Phaedon larvae”, “caterpillars” for “larvae”, “armyworm (Spodoptera frugiperda)” for “mustard beetle (Phaedon cochleariae)”, “caterpillars” for “beetle larvae”

Data set [6] has as its system caterpillars of the diamondback moth (Plutella xylostella). Nature of the data set: Plutella test. The class given is in vivo. The conditions noted are these: 500 ppm active compound. How it is done:
as §3, with “Plutella” for “Phaedon larvae”, “caterpillars” for “larvae”, “diamondback moth (Plutella xylostella)” for “mustard beetle (Phaedon cochleariae)”, “caterpillars” for “beetle larvae”

The test system of the next data set is Amaranthus. The data set is described as follows: Post-emergence test, greenhouse. The note with it: after three weeks. It is filed as in vivo. The method, then: as §1
In the next data set the test system is Sinapis. Nature of the data set: Post-emergence test, greenhouse. The note with it: 250 g ai/ha, after three weeks. It is filed as in vivo. The method, then: as §1
Data set [7] is described as follows: logP determination by HPLC (reversed-phase C18), EEC Directive 79/831 Annex V.A 8. It is filed as physicochemical. The note with it: HPLC reversed-phase column (C 18), 43° C.; for chromatographic logP: reversed-phase C18 HPLC column, pH 2.3. The method, then:
The logP values given for the Examples (I-2-A-a) were determined in accordance with EEC Directive 79/831 Annex V.A 8 by HPLC (High Performance Liquid Chromatography) using a reversed-phase column (C 18). Temperature: 43° C. • (a) Mobile phases for the determination in the acidic range: 0.1% aqueous phosphoric acid, acetonitrile; linear gradient from 10% acetonitrile to 90% acetonitrile. • (b) Mobile phases for the determination in the neutral range: 0.01 molar aqueous phosphate buffer solution, acetonitrile; linear gradient from 10% acetonitrile to 90% acetonitrile. Calibration was carried out using unbranched alkan-2-ones (of 3 to 16 carbon atoms) with known logP values (determination of the logP values by the retention times using linear interpolation between two successive alkanones).

For orientation: chromatographic logP means a lipophilicity value derived from retention on a column.

Each structure is given as a SMILES string.

With `COC1CCC2(CC1)NC(=O)C(n1nc(-c3ccc(Cl)cc3)cc1C)=C2O` (single isomer, unassigned) [Example I-1-A-a-4], in the data set with Sugarbeet, the “% damage, Sugarbeet” value is 10%. The “% damage, Lolium” value in the data set on Lolium (125 g ai/ha) and with Lolium (250 g ai/ha) was 100% throughout. Also, the “% damage, Oilseed rape” value in the data set with Oilseed rape turned out to be 0%. The “% damage, Abutilon” value in the data set with Abutilon worked out at 80%. Besides, the “% damage, Viola” value in the data set on Viola was 100%. Further, the “% damage, Avena fatua” value with Avena fatua (125 g ai/ha) and in the data set with Avena fatua (250 g ai/ha) was 100% each time. The “% damage, Bromus” value in the data set on Bromus (125 g ai/ha) and in the data set on Bromus (250 g ai/ha) was 100% in each case. The “% damage, Setaria” value in the data set on Setaria (125 g ai/ha) and with Setaria (250 g ai/ha) was 100% throughout. In addition, the “% damage, Alopecurus” value in the data set with Alopecurus (125 g ai/ha) and in the data set with Alopecurus (250 g ai/ha) was 100% each time. The “Kill rate in % after 6d” value was 95% in [1] and 90% in data set [2]. The “Kill rate in % after 7d” value is 95% in data set [3], 100% in data set [4], 100% in data set [5] and 100% in data set [6].

For `CCOC(=O)OC1=C(n2nc(-c3ccc(Cl)cc3)cc2C)C(=O)NC12CCC(OC)CC2` (centres unmarked) [Example I-1-A-c-1], the “% damage, Amaranthus” value in the data set on Amaranthus (250 g ai/ha) is 95%. The “% damage, Abutilon” value with Abutilon was determined as 95%. Moreover, the “% damage, Sinapis” value in the data set with Sinapis came out at 80%. Besides, in the data set on Avena fatua (250 g ai/ha), the “% damage, Avena fatua” value is given as 100%. Further, in the data set with Setaria (250 g ai/ha), the “% damage, Setaria” value is 100%. Also, the “% damage, Alopecurus” value in the data set with Alopecurus (250 g ai/ha) was determined as 100%. For the same compound, the “Kill rate in % after 7d” value is 98% in data set [3], 90% in data set [4] and 100% in data set [5].

In the case of `CCOC(=O)OC1=C(c2c(C)nn(-c3ccc(Cl)cc3)c2C)C(=O)NC12CCC(OC)CC2` (centres unmarked) [Example I-1-B-c-1], in the data set with Amaranthus (2000 g ai/ha), the “% damage, Amaranthus” value is recorded as 90%. The “% damage, Avena fatua” value in the data set with Avena fatua (2000 g ai/ha) is 90%. Besides, the “% damage, Setaria” value in the data set on Setaria (2000 g ai/ha) is listed as 95%. Besides, in the data set with Alopecurus (2000 g ai/ha), the “% damage, Alopecurus” value is recorded as 90%.

The compound `COC1CCC2(CC1)OC(=O)C(n1nc(-c3ccc(Cl)cc3)cc1C)=C2O` (centres unmarked) [Example I-2-A-a-1] came in with a chromatographic logP in [7] of 2.05. Further, in [2], the “Kill rate in % after 6d” value stood at 90%. For the same compound, the “Kill rate in % after 7d” value in data set [3] stood at 100%.

Take `Cc1cc(-c2ccc(Cl)cc2)nn1C1=C(O)C2(CCC(C(F)(F)F)CC2)OC1=O` (centres unmarked) [Example I-2-A-a-2]: the “logP (pH 2.3)” value in data set [7] was 2.74.

`Cc1cc(-c2ccc(Cl)cc2)nn1C1=C(O)C(C)(C)OC1=O` [Example I-2-A-a-3]: the “logP (pH 2.3)” value in data set [7] was 1.74.

For `CCOC1CCC2(CC1)OC(=O)C(n1nc(-c3ccc(Cl)cc3)cc1C)=C2O` (centres unmarked) [Example I-2-A-a-4], the “logP (pH 2.3)” value in data set [7] was found to be 2.46.

`Cc1cc(-c2ccc(Cl)cc2)nn1C1=C(O)C2(Cc3ccccc3C2)OC1=O` [Example I-2-A-a-5]: the “logP (pH 2.3)” value in data set [7] is 2.35.

As to `Cc1cc(-c2ccc(Cl)cc2)nn1C1=C(O)C2(CCCOC2)OC1=O` (centres unmarked) [Example I-2-A-a-6], in [7], the “logP (pH 2.3)” value is on record as 1.49.

For `Cc1cc(-c2ccc(Cl)cc2)nn1C1=C(O)C2(CCOCC2)OC1=O` [Example I-2-A-a-7], the “logP (pH 2.3)” value in data set [7] turned out to be 1.55.

With `CCC1(C)OC(=O)C(n2nc(-c3ccc(Br)cc3)cc2C)=C1O` (centres unmarked) [Example I-2-A-a-8], in data set [7], the “logP (pH 2.3)” value is 2.70.

On to `Cc1cc(-c2ccccc2)nn1C1=C(O)C(C)(C(C)C)OC1=O` (centres unmarked) [Example I-2-A-a-9], for which the “logP (pH 2.3)” value in data set [7] is 1.50.

On to `Cc1cc(-c2cccc(C(F)(F)F)c2)nn1C1=C(O)C(C)(CC(C)(C)C)OC1=O` (centres unmarked) [Example I-2-A-a-10], for which the “logP (pH 2.3)” value in data set [7] amounted to 2.92.

Regarding `Cc1cc(-c2ccc(Cl)cc2)nn1C1=C(OC(=O)C(C)(C)C)C2(CCCOC2)OC1=O` (centres unmarked) [Example I-2-A-b-1], the chromatographic logP in data set [7] is 4.32.

`CCOC(=O)C1(OC(=O)Cn2nc(-c3ccc(Cl)cc3)cc2C)CCC(OC)CC1` (centres unmarked) [Example III-A-1] had a chromatographic logP in data set [7] of 4.11.

(Values after US7230116B2, “Pyrazolyl-substituted heterocycles and their use as phytosanitary products” (Bayer CropScience, AG, priority 2001, dated 2007).)
